The record followed here is paper PMC8154581, “Discovery of Novel Thiophene-arylamide Derivatives as DprE1 Inhibitors with Potent Antimycobacterial Activities” (Journal of Medicinal Chemistry, 2021).

One data set relates to Vero cells. Put plainly: Cytotoxicity assay in Vero cells (MTT). The data set is classed as cell-based. To be noted: for IC50: Chlorocebus sabaeus, Vero cells, 48 h, read-out: IC50 (Vero).
In another data set the test system is M. tuberculosis H37Rv. Briefly: MIC against replicating M. tuberculosis H37Rv, microplate Alamar blue assay (MABA). The data set is classed as cell-based. On the technique in general: The colour change of resazurin is a common sign of viable cells or microbes.
[1] abbreviates: Mycobacterium tuberculosis, H37RV, against M. tuberculosis H37Rv, Tables 1-3, read-out: MIC.
[2] abbreviates: Mycobacterium tuberculosis, H37RV, supplementary CSV, same values as Tables 1-3, read-out: Minimal inhibit concentration.
[3] abbreviates: Mycobacterium tuberculosis, H37RV, Table 4, read-out: MIC H37Rv.

Converted amounts (≈) assume the structure as drawn. Where two headings read alike, the source gives them in different places.

A word on the IC50: it is the concentration that gives 50% inhibition. What is called melting point is the temperature, or range, at which the solid turns liquid. In turn, `CCOC(=O)NC(=O)c1ccsc1NC(=O)c1coc(C(=O)N2CCCCC2)c1` [Compound 24k, Ethyl (2-(5-(Piperidine-1-carbonyl)furan-3-carboxamido)thiophene-3-carbonyl)carbamate] yielded a melting point of 157 to 158 °C. In the data set with Vero cells, the SI was above 173 and the 50% inhibitory concentration (IC50) was above 64 µg/mL. The MIC with M. tuberculosis H37Rv (setting [1]) was found to be 0.37 µg/mL (≈ 0.882 µM). Besides, the MIC in the data set with M. tuberculosis H37Rv (setting [2]) is 0.37 µg/mL (≈ 0.882 µM). Also, the MIC with M. tuberculosis H37Rv (setting [3]) turned out to be 0.15 µg/mL (≈ 0.358 µM).

Regarding `CCOC(=O)NC(=O)c1ccsc1NC(=O)c1ccc(C(=O)N2CCSCC2)cc1` [Compound 23p, Ethyl (2-(4-(Thiomorpholine-4-carbonyl)benzamido)thiophene-3-carbonyl)carbamate], the melting point lay in the range of 178 to 179 °C. In the data set with Vero cells, the SI turned out to be 159 and the IC50 came to 52.3 µg/mL (≈ 117 µM). Besides, the MIC with M. tuberculosis H37Rv (setting [1]) was 0.33 µg/mL (≈ 0.737 µM). The MIC in the data set on M. tuberculosis H37Rv (setting [2]) was determined as 0.33 µg/mL (≈ 0.737 µM).

In turn, `COC(=O)C1CN(C(=O)c2ccsc2NC(=O)c2ccc(C(=O)N3CCCCC3)cc2)C1` [Compound 25e, Methyl 1-(2-(4-(Piperidine-1-carbonyl)benzamido)thiophene-3-carbonyl)azetidine-3-carboxylate] registered a melting point of 154 to 155 °C. The MIC in the data set on M. tuberculosis H37Rv (setting [1]) was above 32 µg/mL. In the data set with M. tuberculosis H37Rv (setting [2]), the MIC is above 32 µg/mL.

Take `CCOC(=O)NC(=O)c1ccsc1NC(=O)c1ccc(C(=O)N(C)CC)cc1` [Compound 23b, Ethyl (2-(4-(Ethyl(methyl)carbamoyl)benzamido)thiophene-3-carbonyl)carbamate]: the melting point lay within 161 to 162 °C. Besides, in the data set with Vero cells, the SI is on record as above 67 and the IC50 was above 64 µg/mL. Also, the MIC with M. tuberculosis H37Rv (setting [1]) is 0.95 µg/mL (≈ 2.35 µM). Moreover, the MIC with M. tuberculosis H37Rv (setting [2]) was found to be 0.95 µg/mL (≈ 2.35 µM).

In the case of `CCOC(=O)NC(=O)c1ccsc1NC(=O)c1cccc(C(=O)N2CCCCC2)c1` [Compound 24a, Ethyl (2-(3-(Piperidine-1-carbonyl)benzamido)thiophene-3-carbonyl)carbamate], the MIC with M. tuberculosis H37Rv (setting [1]) and in the data set with M. tuberculosis H37Rv (setting [2]) was 3.7 µg/mL (≈ 8.61 µM) throughout.

Take `CCOC(=O)NC(=O)c1ccsc1NC(=O)c1ccc(C(=O)N2CCOCC2)cc1` [Compound 23o, Ethyl (2-(4-(Morpholine-4-carbonyl)benzamido)thiophene-3-carbonyl)carbamate]: the melting point fell in the range of 159 to 160 °C. Also, in the data set with M. tuberculosis H37Rv (setting [1]), the MIC turned out to be 1.66 µg/mL (≈ 3.85 µM). Moreover, the MIC with M. tuberculosis H37Rv (setting [2]) was 1.66 µg/mL (≈ 3.85 µM).

For the compound `CCOC(=O)NC(=O)c1ccsc1NC(=O)c1cc(C(=O)N2CCCCC2)c[nH]1` [Compound 24l, Ethyl (2-(4-(Piperidine-1-carbonyl)-1H-pyrrole-2-carboxamido)thiophene-3-carbonyl)carbamate], the melting point lay within 183 to 184 °C. For the same compound, the MIC with M. tuberculosis H37Rv (setting [1]) stood at 1.77 µg/mL (≈ 4.23 µM). Besides, the MIC in the data set on M. tuberculosis H37Rv (setting [2]) is 1.77 µg/mL (≈ 4.23 µM).

`Cc1cccc(NC(=O)c2ccsc2NC(=O)c2ccc(C(=O)N3CCCCC3)cc2)n1` [Compound 25n, N-(6-Methylpyridin-2-yl)-2-(4-(piperidine-1-carbonyl)benzamido)thiophene-3-carboxamide] yielded a melting point of 171 to 174 °C. Further, the MIC in the data set with M. tuberculosis H37Rv (setting [1]) was above 32 µg/mL. Moreover, the MIC in the data set with M. tuberculosis H37Rv (setting [2]) was above 32 µg/mL.

As to `CCOC(=O)NC(=O)c1ccsc1NC(=O)c1ccc(C(=O)N2CCCC2)cc1` [Compound 23i, Ethyl (2-(4-(Pyrrolidine-1-carbonyl)benzamido)thiophene-3-carbonyl)carbamate], in the data set with Vero cells, the IC50 was above 64 µg/mL. For the same compound, the MIC in the data set with M. tuberculosis H37Rv (setting [1]) and in the data set with M. tuberculosis H37Rv (setting [2]) was 0.2 µg/mL (≈ 0.481 µM) in each case.

Take `CCOC(=O)NC(=O)c1ccsc1NC(=O)c1ccc(C(=O)N2CCCCC2)c(C)c1` [Compound 24g, Ethyl (2-(3-Methyl-4-(piperidine-1-carbonyl)benzamido)thiophene-3-carbonyl)carbamate]: the IC50 in the data set with Vero cells is 53.1 µg/mL (≈ 120 µM). The MIC was 0.12 µg/mL (≈ 0.271 µM) with M. tuberculosis H37Rv (Mycobacterium tuberculosis, H37RV, against M. tuberculosis H37Rv, Tables 1-3) and 0.12 µg/mL (≈ 0.271 µM) in the data set on M. tuberculosis H37Rv (setting [2]).

On to `CCOC(=O)NC(=O)c1ccsc1NC(=O)c1ccc(C(=O)N2CCC(C)CC2)cc1` [Compound 23l, Ethyl (2-(4-(4-Methylpiperidine-1-carbonyl)benzamido)thiophene-3-carbonyl)carbamate], for which the IC50 in the data set with Vero cells was above 64 µg/mL. Besides, the MIC in the data set on M. tuberculosis H37Rv (setting [1]) and in the data set on M. tuberculosis H37Rv (setting [2]) was 0.03 µg/mL (≈ 0.0676 µM) throughout.

With `CCOC(=O)NC(=O)c1ccsc1NC(=O)c1ccc(C(=O)N2CCCCCC2)cc1` [Compound 23k, Ethyl (2-(4-(Azepane-1-carbonyl)benzamido)thiophene-3-carbonyl)carbamate], in the data set on Vero cells, the IC50 came out at 48.4 µg/mL (≈ 109 µM). In addition, the MIC in the data set with M. tuberculosis H37Rv (setting [1]) and in the data set on M. tuberculosis H37Rv (setting [2]) was 0.22 µg/mL (≈ 0.496 µM) in each case.

As to `Cc1cnc(NC(=O)c2ccsc2NC(=O)c2ccc(C(=O)N3CCCCC3)cc2)cn1` [Compound 25m, N-(5-Methylpyrazin-2-yl)-2-(4-(piperidine-1-carbonyl)benzamido)thiophene-3-carboxamide], the melting point lay in the range of 177 to 179 °C. Also, in the data set with M. tuberculosis H37Rv (setting [1]), the MIC is above 32 µg/mL. For the same compound, in the data set on M. tuberculosis H37Rv (setting [2]), the MIC is above 32 µg/mL.

On to `CCOC(=O)NC(=O)c1ccsc1NC(=O)c1ccc(C(=O)N2CCC(F)(F)CC2)cc1` [Compound 23n, Ethyl (2-(4-(4,4-Difluoropiperidine-1-carbonyl)benzamido)thiophene-3-carbonyl)carbamate], for which the half-maximal inhibitory concentration (IC50) in the data set with Vero cells was above 64 µg/mL. The MIC in the data set with M. tuberculosis H37Rv (setting [1]) and with M. tuberculosis H37Rv (setting [2]) was 0.25 µg/mL (≈ 0.537 µM) throughout.

“N-(4-Methylpyridin-2-yl)-2-(4-(piperidine-1-carbonyl)benzamido)thiophene-3-carboxamide [Compound 25o]” gave an MIC with M. tuberculosis H37Rv (against M. tuberculosis H37Rv, Tables 1-3) above 32 µg/mL. In the data set with M. tuberculosis H37Rv (supplementary CSV, same values as Tables 1-3), this compound gave a Minimal inhibit concentration above 32 µg/mL.

As for `COc1nc2ccc(Br)cc2cc1[C@@H](c1ccccc1)[C@@](O)(CCN(C)C)c1cccc2ccccc12` [bedaquiline, reference compound], the MIC in the data set with M. tuberculosis H37Rv (setting [3]) came to 0.036 µg/mL (≈ 0.0648 µM).

Regarding `CCOC(=O)NC(=O)c1ccsc1NC(=O)c1ccc2cc(C(=O)N3CCCCC3)ccc2c1` [Compound 24h, Ethyl (2-(6-(Piperidine-1-carbonyl)-2-naphthamido)thiophene-3-carbonyl)carbamate], the melting point lay within 177 to 178 °C. Moreover, the MIC in the data set with M. tuberculosis H37Rv (setting [1]) amounted to 3.13 µg/mL (≈ 6.53 µM). In addition, the MIC with M. tuberculosis H37Rv (setting [2]) was determined as 3.13 µg/mL (≈ 6.53 µM).

`COC(=O)N1CCN(C(=O)c2ccsc2NC(=O)c2ccc(C(=O)N3CCCCC3)cc2)CC1` [Compound 25g, Methyl 4-(2-(4-(Piperidine-1-carbonyl)benzamido)thiophene-3-carbonyl)piperazine-1-carboxylate]: the melting point was 113 to 114 °C. The MIC with M. tuberculosis H37Rv (setting [1]) is above 32 µg/mL. Moreover, the MIC with M. tuberculosis H37Rv (setting [2]) is above 32 µg/mL.

`CCOC(=O)N1CCN(C(=O)c2ccsc2NC(=O)c2ccc(C(=O)N3CCCCC3)cc2)CC1` [Compound 25h, Ethyl 4-(2-(4-(Piperidine-1-carbonyl)benzamido)thiophene-3-carbonyl)piperazine-1-carboxylate] returned a melting point of 134 to 135 °C. Moreover, the MIC in the data set with M. tuberculosis H37Rv (setting [1]) is above 32 µg/mL. The MIC in the data set on M. tuberculosis H37Rv (setting [2]) was above 32 µg/mL.

In the case of `CCNC(=O)NC(=O)c1ccsc1NC(=O)c1ccc(C(=O)N2CCCCC2)cc1` [Compound 25c, N-(Ethylcarbamoyl)-2-(4-(piperidine-1-carbonyl)benzamido)thiophene-3-carboxamide], the melting point was 223 to 224 °C. Besides, the MIC with M. tuberculosis H37Rv (setting [1]) was above 32 µg/mL. Also, the MIC with M. tuberculosis H37Rv (setting [2]) is above 32 µg/mL.

Turning to `CCOC(=O)NC(=O)c1ccsc1NC(=O)c1ccc(-c2ccc(C(=O)N3CCCCC3)cc2)cc1` [Compound 24i, Ethyl (2-(4′-(Piperidine-1-carbonyl)-[1,1′-biphenyl]-4-carboxamido)thiophene-3-carbonyl)carbamate], the MIC in the data set on M. tuberculosis H37Rv (setting [1]) and with M. tuberculosis H37Rv (setting [2]) was 7.76 µg/mL (≈ 15.3 µM) in each case.

The compound `Cc1ccc2sc(NC(=O)c3ccsc3NC(=O)c3ccc(C(=O)N4CCCCC4)cc3)nc2c1` [Compound 25q, N-(5-Methylbenzo[d]thiazol-2-yl)-2-(4-(piperidine-1-carbonyl)benzamido)thiophene-3-carboxamide] gave a melting point above 250 °C. The MIC in the data set with M. tuberculosis H37Rv (setting [1]) was above 32 µg/mL. For the same compound, in the data set with M. tuberculosis H37Rv (setting [2]), the MIC is above 32 µg/mL.

Take `COC(=O)C1CCN(C(=O)c2ccsc2NC(=O)c2ccc(C(=O)N3CCCCC3)cc2)CC1` [Compound 25f, Methyl 1-(2-(4-(Piperidine-1-carbonyl)benzamido)thiophene-3-carbonyl)piperidine-4-carboxylate]: the melting point fell in the range of 169 to 170 °C. In addition, in the data set on M. tuberculosis H37Rv (setting [1]), the MIC is 15.5 µg/mL (≈ 32.1 µM). Also, the MIC in the data set with M. tuberculosis H37Rv (setting [2]) stood at 15.5 µg/mL (≈ 32.1 µM).

In turn, `Cc1cc(C)nc(NC(=O)c2ccsc2NC(=O)c2ccc(C(=O)N3CCCCC3)cc2)n1` [Compound 25p, N-(4,6-Dimethylpyrimidin-2-yl)-2-(4-(piperidine-1-carbonyl)benzamido)thiophene-3-carboxamide] yielded a melting point of 189 to 190 °C. Further, the MIC in the data set with M. tuberculosis H37Rv (setting [1]) is above 32 µg/mL. Moreover, the MIC in the data set with M. tuberculosis H37Rv (setting [2]) is above 32 µg/mL.

Take `CCOC(=O)NC(=O)c1ccsc1NC(=O)c1ccc(C(=O)N2CCCCC2)cc1F` [Compound 24b, Ethyl (2-(2-Fluoro-4-(piperidine-1-carbonyl)benzamido)thiophene-3-carbonyl)carbamate]: in the data set on Vero cells, the IC50 is above 64 µg/mL. In addition, the MIC with M. tuberculosis H37Rv (setting [1]) and in the data set on M. tuberculosis H37Rv (setting [2]) was 0.12 µg/mL (≈ 0.268 µM) each time.

With `Cc1cnc(NC(=O)c2ccsc2NC(=O)c2ccc(C(=O)N3CCCCC3)cc2)s1` [Compound 25i, N-(5-Methylthiazol-2-yl)-2-(4-(piperidine-1-carbonyl)benzamido)thiophene-3-carboxamide], the melting point was in the range of 236 to 238 °C. Further, the MIC with M. tuberculosis H37Rv (setting [1]) was above 32 µg/mL. The MIC with M. tuberculosis H37Rv (setting [2]) is above 32 µg/mL.

With `NC(=O)c1ccsc1NC(=O)c1ccc(C(=O)N2CCCCC2)cc1` [Compound 25d, 2-(4-(Piperidine-1-carbonyl)benzamido)thiophene-3-carboxamide], the MIC with M. tuberculosis H37Rv (setting [1]) and in the data set on M. tuberculosis H37Rv (setting [2]) was above 32 µg/mL in each case.
